row,Structure (SMILES),melting point
1,O=C(Cn1cnnn1)N(O)CCCP(=O)(O)O,157 to 159 °C
2,O=C(Cl)N(OCc1ccccc1)C1c2ccccc2Oc2ccccc21,117 °C
3,O=C1NC(=O)C(c2ccc3c(c2)CCCC3)S1 (configuration not stated),157 to 158 °C
4,CC(C)CC1(CC(C)C)CCc2c(OCc3ccc4ccccc4n3)cccc2C1O (configuration not stated),144 to 146 °C
5,CCCc1c(OCC(O)COc2ccc3c(=O)cc(CCC(=O)OCC)oc3c2CCC)ccc(C(C)=O)c1O (configuration not stated),137 to 138 °C
6,Cc1ccc2c(c1)c(Cl)c(C#N)c(=O)n2Cc1ccccc1,219 °C
7,Cc1ccc2c3c(ccc2n1)OC[C@H](CN1CCCN(c2ccc4cc(C#N)ccc4n2)CC1)O3,80 to 85 °C
8,COC(=S)c1cc(C)nc(Cl)n1,90 to 92 °C
9,COc1cc(C(C)C)c2c(c1)S(=O)(=O)N(COc1cc(Cl)nn1-c1ccccc1)C2=O,109 to 110 °C
10,CCOC(=O)c1ccc(Cn2cnc3ncccc32)cc1,142 to 143 °C
11,CCN(CC)C(=O)c1ccc(C(=C2CCN(Cc3ccccc3)CC2)c2cccc(OC)c2)cc1,100 to 110 °C
12,O=C(O)C(Cl)=C(Cl)C(=O)O,107 to 110 °C
13,Nc1cc(C2=NOC(c3cc(Cl)cc(Cl)c3)(C(F)(F)F)C2)ccc1-n1cncn1 (configuration not stated),244 to 246 °C
14,COc1ccc2oc(Cc3cccnc3)c(CCNC(C)=O)c2c1,117 °C
15,c1ccc(-c2nc3c4ccccc4ccn3n2)cc1,157 to 158 °C
16,Clc1cc(-c2ccccc2)nc2sccc12,83 to 85 °C
17,CCCCOC(=O)Cc1ccc(N[C@@H](CCC(N)=O)C(=O)O)cc1,177 to 179 °C
18,CC(=O)NC[C@H]1CN(c2ccc(C3CCOCC3)cc2)C(=O)O1,185 to 187 °C
19,Cc1cc(C2=C(C=CC3CC(O)CC(=O)O3)C(C)(C)CC(OC(=O)Nc3ccccc3)C2)ccc1F (configuration not stated),73 to 75 °C
20,CSc1ccc(C=C2c3ccc(F)cc3CC2C)cc1 (configuration not stated),67 to 70 °C
21,ON=C1CCn2c1cc1ccccc12,> 220 °C
22,Cc1nc(N2CCN(Cc3ccc(F)c(F)c3)C2=O)sc1C(N)=O,221 to 223 °C
23,O=C(CN1C(=O)c2ccccc2C1=O)c1ccc(F)cc1,140 to 144 °C
24,C=CC(=O)OCCCCCCCCOc1ccc(-c2ccc(OCCCCCCCCOC(=O)C=C)c(F)c2F)c(F)c1F,60.5 to 61.4 °C
25,Oc1ccccc1Oc1ncc(Cl)cn1,131 to 139 °C
26,COc1cc(OC)c(CN2CCc3cc(OCc4ccccc4)c(OC)cc3C2)c(OC)c1,129 to 131 °C

row,Structure (SMILES),melting point
1,N#Cc1ccc(CC[C@H]2CC[C@H](CO)CC2)cc1,119 to 121 °C
2,O=C(O)c1ccc2c(CCNCc3cccc(OCC(F)(F)F)c3)c[nH]c2c1,232 to 235 °C
3,Cc1nc(=O)c(C)c(NCCc2cccn2C)[nH]1,246 to 247 °C
4,Oc1c(F)cc2c(c1F)CC(n1cc[nH]c1=S)CC2 (configuration not stated),258 to 260 °C
5,CC(C(=O)O)c1ccc2sc3ncccc3c(=O)c2c1 (configuration not stated),206 to 208 °C
6,CC(C)(C)OC(=O)c1ccc(O)c(Br)c1,106 to 108 °C
7,CN(C)C1(c2ccccc2)CCC(CNC(=O)N2CCCC(c3c[nH]c4ccccc34)C2)CC1 (configuration not stated),95 to 99 °C
8,O=C(Nc1ccc(N2CCOCC2=O)cc1)[C@H]1C[C@@H](O)CN1C(=O)Cc1ccc(Cl)cc1,141 °C
9,C=CCS(=O)(=O)c1ccc(NN=C(C)C)cc1,105 to 108 °C
10,CCOC1CC(O)C(=O)N1S(=O)(=O)c1ccccc1 (configuration not stated),108 to 116 °C
11,CC(C)(C)N(NC(=O)c1ccccc1)C(=O)c1cccs1,> 200 °C
12,Cc1ccc2ccc(C(=O)O)c(O)c2n1,217 to 219 °C
13,Cc1nc2c(CO)cccn2c(=O)c1CCN1CCC(c2noc3cc(F)ccc23)CC1,186 °C
14,CN(C)c1ccc(C2(c3ccc(N(C)C)cc3)Oc3ccccc3-c3[nH]c4ccccc4c32)cc1,145 °C
15,COc1cccc(C(=O)c2cc3ccccc3[nH]2)c1,119 to 121 °C
16,NCc1ccc(N2C(=O)N(c3ccccc3Br)Cc3cnc(Nc4ccccc4)nc32)cc1,133 to 136 °C
17,CCCn1c(=O)c2[nH]c([C@@H](C)Cc3ccccc3)nc2n(CCC)c1=O,141 to 142 °C
18,CCCCc1nc(I)c(C=O)n1Cc1ccc(C(=O)OC)c2ccccc12,178 to 179 °C
19,Cc1ccc(-c2c(C(=O)Nc3nccs3)nc(-c3cccc4ccccc34)n2CCN2CCOCC2)cc1,226 to 227 °C
20,Cc1cncc(C)c1-c1c(C)cc(C=Cc2cc(C(C)(C)C)c(O)c(C(C)(C)C)c2)cc1C,234 to 235 °C
21,Cc1cc(C(=O)N[C@@H](CC(C)C)C(=O)N[C@@H](C(C)C)[C@@H](O)c2c(-c3ccccc3)c2=O)n(C)n1,115 to 118 °C
22,Nc1ncnc2c1c(-c1cc(O)cc(F)c1)nn2Cc1oc2ccccc2c(=O)c1-c1cccc(F)c1,235 to 237 °C
23,CSC(Cc1ccc2oc(Cc3nc(-c4ccccc4)oc3C)cc2c1)C(=O)O (configuration not stated),178 to 179 °C
24,O=C(O)C(=O)c1ccc(OCC#Cc2ccccc2)cc1,97 to 99 °C
25,NC(=O)C(Nc1ccc2ccccc2c1)c1c(Cl)cccc1Cl (configuration not stated),158 °C
26,CC(=O)c1c(-c2cccc([N+](=O)[O-])c2)cc(C(=O)NCCN2CCOCC2)nc1C,107 to 110 °C

row,Structure (SMILES),melting point
1,Cc1c(-c2ccc(O)c(Cl)c2)sc(C=O)c1-c1ccc(O)c(F)c1,227 to 229 °C
2,CCCc1c(OCCCCCc2c(Cl)ccc(OC)c2OC)ccc(C(=O)O)c1O,140 to 142 °C
3,COC(=O)CS(=O)(=O)N1CC=C(c2ccc(-c3ccccc3)c(OC)c2)CC1,92 to 95 °C
4,CC(CCCC(C)(C)O)C1CCC2C3C=CC4=CC(=O)C5OC5C4(C)C3CCC12C (configuration not stated),162 to 163 °C
5,CC(CCNC(=O)c1cc2cc(Cl)ccc2[nH]1)n1ccnc1 (configuration not stated),210 °C
6,O=C1NCCCCC1c1cccc(O)c1 (configuration not stated),175 to 178 °C
7,COc1cc2cc3c(Nc4ccc(Oc5ccccc5)c(Cl)c4)c(C#N)cnc3cc2cc1OCCN1CCOCC1,190 to 194 °C
8,COc1ccccc1N1CCN(CCCCCn2c(=O)[nH]c3cscc3c2=O)CC1,148 to 153 °C
9,O=c1[nH]c2ccc(Cl)cc2c(=O)n1CCCS,255 to 257 °C
10,CCc1cc(OCc2ccc(-c3ccccc3-c3nnnn3-c3ccc([N+](=O)[O-])cc3)cc2)c2ccccc2n1,204 to 206 °C
11,O=C(OC1CCCC1)c1ccc([N+](=O)[O-])c(OC2CCCC2)c1,45.5 to 46.5 °C
12,CC(=O)SCC(C)C(=O)N1C(C(=O)O)CC2CCCCC21 (configuration not stated),152 to 154 °C
13,Cc1cc(C(=Cc2nnnn2C)c2ccc(F)c(C)c2)ccc1F,138 to 139 °C
14,CCCOc1ccc(S(=O)(=O)N2CCC(C(=O)OCC)CC2)cc1-c1nc2cc3nc[nH]c3cc2c(=O)[nH]1,145 to 147 °C
15,CSc1nccn1N=Cc1ccccc1,95 to 97 °C
16,CC(C)(C)[Si](C)(C)Oc1ccc2c(N3C(=O)c4ccccc4C3=O)n[nH]c2c1,207 to 209 °C
17,O=C(C=Cc1ccc(F)cc1)N1CCOCC1,136 to 137 °C
18,O=Cc1cc(F)c(O)c(F)c1O,141 to 143 °C
19,COC(=O)[C@H]1CN(c2ccc3c(c2)sc(=O)n3C(C)C)C(=O)O1,161 to 162 °C
20,Cc1nc(Cl)c2nnn(-c3ccc(C(C)C)cc3Br)c2n1,72 to 74 °C
21,CC(=O)N1CCC(C2=C(C#N)C(c3cccc(C#N)c3Br)c3c[nH]nc3N2)CC1 (configuration not stated),> 280 °C
22,COc1cc(C(=O)O)ccc1Cc1cccc2ccc(C(=O)NCC(C)C)cc12,254 °C
23,CCOC(=O)CSc1nc(Cl)cc(NN=Cc2ccc(F)cc2)n1,146 to 149 °C
24,CCn1c(C#N)ccc1-c1ccc2c(c1)C(C)(C)OC(=O)N2,200 to 202 °C
25,C=CCC(CC=C)(C(=O)NO)S(=O)(=O)c1ccc(OC)cc1,114 to 116 °C
26,CCN(CC)C(=O)n1cnc(S(=O)(=O)Cc2ccccc2)n1,87 to 88 °C

row,Structure (SMILES),melting point
1,Fc1cc(-c2ccc3nnn(Cc4ccc5ncccc5c4)c3n2)ccc1OCC1CC1,160 to 162 °C
2,Clc1ccccc1-c1nc(-c2ccccc2)c(-c2ccccc2)[nH]1,196 to 197 °C
3,O=C1SCCN1Cc1ccccc1[N+](=O)[O-],92 to 93 °C
4,Cc1nnc(-c2ccc3occ(-c4ccc(S(C)(=O)=O)c(OC(F)(F)F)c4)c3c2)o1,218 to 219 °C
5,CN1CCN(c2cnn(C)c(=O)c2C=NO)CC1,168 to 169 °C
6,COc1cc(CSc2ccc(O)cc2)cc(OC)c1OC,139 to 140 °C
7,CCOC(=O)C1=C(C)NC(C#N)=C(C(=O)OCC)C1c1ccco1 (configuration not stated),139 to 141 °C
8,CS(=O)(=O)NCCn1c(CO)nc2c(N)nc3cccnc3c21,239 to 242 °C
9,CCCCCCCCCCCCN=C=O,100 to 103 °C
10,O=C(Nc1ccccc1)C1(C=Cc2ccccc2)SC=CC1OC(F)F (configuration not stated),80 to 82 °C
11,O=NCNC1=Nc2sc(Cl)cc2C(c2ccccc2)=NC1,108 to 110 °C
12,C=CCOc1cccc(N2C(=O)C3=C(CCCC3)C2=O)c1,88 to 90 °C
13,COc1ccc(C=CC(=O)C=Cc2ccccc2)cc1,85 to 89 °C
14,CC(C)=CCN1c2nc(Cl)ccc2NC(=O)[C@@H]1C,136 to 137 °C
15,O=[N+]([O-])c1cc(I)ccc1Nc1cccc(-c2ccccn2)c1,195 to 196 °C
16,FC(F)(F)c1nc(Cl)c(-c2ccccc2)c(-c2ccccc2)n1,105 to 107 °C
17,Nc1nc(S(N)(=O)=O)c2[nH]cnc2n1,> 250 °C
18,CC(=O)c1cc2cc(Br)ccc2s1,120 to 121 °C
19,COC(=O)c1cc(Cl)c(NC(C)=O)cc1OC(C)=O,134 to 136 °C
20,CC(C)c1onc(-c2c(Cl)cccc2Cl)c1COc1ccc(NCc2ccc(C(=O)O)cc2)c(C(F)(F)F)n1,259 to 260 °C
21,CCCCC(CC)n1nnc2c(Nc3c(Br)cc(OC)cc3OC)nc(C)cc21 (configuration not stated),127 to 128 °C
22,CCOC(=O)C12CCC(=O)N1C(=O)CC2,77 to 82 °C
23,CC(=O)c1cccc2c1ccn2C,63 to 64 °C
24,CC(C)(C)OC(=O)N1CCn2c(Cl)c(Br)c(C(N)=O)c2C1,214 to 216 °C

# Reference: a melting point compilation (Tetko et al.; mined from patent text by program, amines drawn as free bases though some values may be those of a salt)
